The values below come from patent publication US8106055B2, “Substituted amide compounds” (Gruenenthal GmbH, priority 2007, dated 2012).

The assay addresses T1, human bradykinin 1 receptor (B1R) (Homo sapiens, UniProt P46663).
T1 construct: expressed in transfected cells; host or cells: CHO K1 cells
T1 sequence (P46663 1-353): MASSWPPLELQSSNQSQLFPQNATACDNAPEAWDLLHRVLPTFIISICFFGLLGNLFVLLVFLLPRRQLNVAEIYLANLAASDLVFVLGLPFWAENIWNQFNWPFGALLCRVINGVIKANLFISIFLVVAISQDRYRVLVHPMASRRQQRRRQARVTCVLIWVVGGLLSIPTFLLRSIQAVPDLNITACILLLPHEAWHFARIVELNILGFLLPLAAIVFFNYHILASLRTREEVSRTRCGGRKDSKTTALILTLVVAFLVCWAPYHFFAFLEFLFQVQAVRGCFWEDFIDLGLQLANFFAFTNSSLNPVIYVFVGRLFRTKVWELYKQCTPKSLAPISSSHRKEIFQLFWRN
In words: Functional investigation on the human bradykinin 1 receptor (B1R), Ca2+ FLIPR assay in CHO K1 hB1R cells. The format is cell-based. The conditions noted are these: B1R antagonism human; test substance 10 μM; Ca2+ FLIPR, CHO K1 hB1R cells. An outline of the steps:
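Stably transfected CHO K1 cells loaded with Fluo-4; FLIPR Ca2+ fluorescence peak (ex 488/em 540 nm). Compound added first (agonism vs Lys-Des-Arg9-bradykinin ≥50 nM human, Des-Arg9-bradykinin 10 μM rat), then after 10-20 min agonist at EC80; antagonism as % inhibition, IC50 from concentration series, n=2-3, N≥2.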

Molecules are shown by their SMILES.

Regarding `COc1cc(C)c(S(=O)(=O)N(CCOCC(=O)NC2CCC(C(c3cccc(F)c3)N(C)C)CC2)Cc2ccccc2)c(C)c1C` (stereo not shown) [Example 419], the “B1R Ant. h [10 μM] % Inhibition” value turned out to be 37%.

For the molecule `COc1cc(C)c(S(=O)(=O)N(C)CCOCC(=O)NC2CCC(C(c3ccc(F)cc3)N(C)C)CC2)c(C)c1` (stereo not shown) [Example 422], the “B1R Ant. h [10 μM] % Inhibition” value was 104%.

As for `CN(C)C(c1ccc(F)cc1)C1CCC(NC(=O)COC2CCCN(S(=O)(=O)c3ccccc3)C2)CC1` (stereo not shown) [Example 423], the “B1R Ant. h [10 μM] % Inhibition” value came out at 4%.

Take `CN(C)C(c1ccc(F)cc1)C1CCC(CNC(=O)COCC2CCCN(S(=O)(=O)c3ccccc3)C2)CC1` (stereo not shown) [Example 424]: the “B1R Ant. h [10 μM] % Inhibition” value is recorded as −12%.

On to `CN(C)C(c1ccc(Cl)cc1)C1CCC(CCNC(=O)COCC2CCCN(S(=O)(=O)c3ccccc3)C2)CC1` (stereo not shown) [Example 425], for which the “B1R Ant. h [10 μM] % Inhibition” value is 12%.

Consider `CN(C)C(c1ccc(Cl)cc1)C1CCC(CCNC(=O)COCCN(Cc2ccccc2)S(=O)(=O)c2ccccc2)CC1` (stereo not shown) [Example 426], for which the “B1R Ant. h [10 μM] % Inhibition” value is on record as −7%.

For the molecule `COc1cc(C)c(S(=O)(=O)N2CCC(OCC(=O)NCC3CCC(C(c4ccc(F)cc4)N(C)C)CC3)C2)c(C)c1C` (stereo not shown) [Example 427], the “B1R Ant. h [10 μM] % Inhibition” value is 76%.

Consider `COc1cc(C)c(S(=O)(=O)N2CCC(OCC(=O)NCC3CCC(C(c4ccc(Cl)cc4)N(C)C)CC3)C2)c(C)c1C` (stereo not shown) [Example 428], for which the “B1R Ant. h [10 μM] % Inhibition” value worked out at 48%.

With `COc1cc(C)c(S(=O)(=O)N2CCN(CCOCC(=O)NCC3CCC(C(c4ccc(Cl)cc4)N(C)C)CC3)CC2)c(C)c1C` (stereo not shown) [Example 429], the “B1R Ant. h [10 μM] % Inhibition” value turned out to be 75%.

Turning to `COc1ccc(S(=O)(=O)N2CCC(OCC(=O)NCCC3CCC(C(c4ccc(F)cc4)N(C)C)CC3)C2)cc1OC` (stereo not shown) [Example 430], the “B1R Ant. h [10 μM] % Inhibition” value was −7%.

With `CN(C)C(c1ccc(Cl)cc1)C1CCC(CCNC(=O)COC2CCN(S(=O)(=O)c3cccc(C(F)(F)F)c3)C2)CC1` (stereo not shown) [Example 431], the “B1R Ant. h [10 μM] % Inhibition” value is reported as 25%.

As to `Cc1cc(C)c(S(=O)(=O)N2CCC(OCC(=O)NCC3CCC(C(c4ccc(F)cc4)N(C)C)CC3)C2)c(C)c1` (stereo not shown) [Example 432], the “B1R Ant. h [10 μM] % Inhibition” value turned out to be 61%.

With `CN(C)C(c1ccc(F)cc1)C1CCC(CNC(=O)COCCN2CCN(S(=O)(=O)c3ccccc3)CC2)CC1` (stereo not shown) [Example 433], the “B1R Ant. h [10 μM] % Inhibition” value is −4%.

Take `CCN(CCOCC(=O)NCCC1CCC(C(c2ccc(Cl)cc2)N(C)C)CC1)S(=O)(=O)c1c(C)cc(OC)c(C)c1C` (stereo not shown) [Example 434]: the “B1R Ant. h [10 μM] % Inhibition” value stood at 47%.

With `COc1cc(C)c(S(=O)(=O)N2CCCC(OCC(=O)NC3CCC(C(c4ccc(F)cc4)N(C)C)CC3)C2)c(C)c1C` (stereo not shown) [Example 435], the “B1R Ant. h [10 μM] % Inhibition” value was determined as 15%.

`COc1cc(C)c(S(=O)(=O)N(CCOCC(=O)NCCC2CCC(C(c3cccc(F)c3)N(C)C)CC2)Cc2ccccc2)c(C)c1C` (stereo not shown) [Example 436]: the “B1R Ant. h [10 μM] % Inhibition” value was determined as 8%.

As for `CN(C)C(c1ccc(F)cc1)C1CCC(NC(=O)COCCN(C)S(=O)(=O)c2cccc(C(F)(F)F)c2)CC1` (stereo not shown) [Example 438], the “B1R Ant. h [10 μM] % Inhibition” value was found to be 9%.

In the case of `CN(C)C(c1ccc(F)cc1)C1CCC(CNC(=O)COCCN(C)S(=O)(=O)c2ccc(OC(F)(F)F)cc2)CC1` (stereo not shown) [Example 439], the “B1R Ant. h [10 μM] % Inhibition” value is 44%.

`CN(C)C(c1ccc(Cl)cc1)C1CCC(CCNC(=O)COC2CCN(S(=O)(=O)c3ccc(F)cc3)C2)CC1` (stereo not shown) [Example 440]: the “B1R Ant. h [10 μM] % Inhibition” value came to 8%.

Consider `COc1cc(C)c(S(=O)(=O)N2CCC(OCC(=O)NC3CCC(C(c4ccc(F)cc4)N(C)C)CC3)C2)c(C)c1` (stereo not shown) [Example 441], for which the “B1R Ant. h [10 μM] % Inhibition” value turned out to be 94%.

Take `CN(C)C(c1ccc(Cl)cc1)C1CCC(CCNC(=O)COCCN(C)S(=O)(=O)c2c(Cl)cc(Cl)cc2Cl)CC1` (stereo not shown) [Example 442]: the “B1R Ant. h [10 μM] % Inhibition” value was 84%.

For `CN(C)C(c1ccc(Cl)cc1)C1CCC(CCNC(=O)COC2CCN(S(=O)(=O)c3ccccc3)CC2)CC1` (stereo not shown) [Example 443], the “B1R Ant. h [10 μM] % Inhibition” value was 21%.

For the molecule `CN(C)C(c1cccc(F)c1)C1CCC(CCNC(=O)COC2CCN(S(=O)(=O)c3ccccc3)CC2)CC1` (stereo not shown) [Example 444], the “B1R Ant. h [10 μM] % Inhibition” value is −20%.

In the case of `CN(C)C(CCc1ccccc1)C1CCC(CNC(=O)COCCN(C)S(=O)(=O)c2ccc(Cl)cc2)CC1` (stereo not shown) [Example 445], the “B1R Ant. h [10 μM] % Inhibition” value amounted to 66%.

Regarding `CN(C)C(c1ccc(F)cc1)C1CCC(CCNC(=O)COCCN(C)S(=O)(=O)c2ccc(OC(F)(F)F)cc2)CC1` (stereo not shown) [Example 446], the “B1R Ant. h [10 μM] % Inhibition” value was determined as 19%.

For the molecule `Cc1ccc(S(=O)(=O)N2CCC(OCC(=O)NCC3CCC(C(c4ccc(F)cc4)N(C)C)CC3)C2)cc1` (stereo not shown) [Example 447], the “B1R Ant. h [10 μM] % Inhibition” value is given as 24%.

Consider `Cc1ccc(S(=O)(=O)N(C)CCOCC(=O)NC2CCC(C(c3ccc(F)cc3)N(C)C)CC2)cc1` (stereo not shown) [Example 448], for which the “B1R Ant. h [10 μM] % Inhibition” value is listed as 0%.

For `COc1cc(C)c(S(=O)(=O)N2CCCC(OCC(=O)NCC3CCC(C(c4ccc(Cl)cc4)N(C)C)CC3)C2)c(C)c1C` (stereo not shown) [Example 449], the “B1R Ant. h [10 μM] % Inhibition” value was found to be 25%.
